{"source": "patent US10519423B1", "about": "“High efficiency reprogramming of fibroblasts into cardiomyocytes” (The Regents of the University of Colorado, a body corporate, priority 2015, dated 2019)", "key": {"rats following MI": {"test_system": "rats following MI", "conditions": "cited from earlier work"}, "MEFs [1]": {"test_system": "MEFs", "experiment": "Counting of spontaneously beating cells in infected MEFs", "type": "cell-based, mouse", "conditions": "for spontaneously beating cells induced by GHMT2m in the presence of inhibitor: GHMT2m-MEFs treated 7 days, counted at day 9, Thiazovivin 2.5 μM, SR-3677 5 μM, GW788388 3 μM, LY-364947 1.5 μM, SD-208 1 μM", "description": "(§1) Fibroblasts were plated on tissue culture dishes pre-coated with SureCoat (Cellutron) at a density of ˜40 cells/mm^2 before transduction. The fibroblast growth medium was replaced with freshly made viral mixture containing polybrene (Sigma). Twenty-four hours later, fibroblasts were infected again with viral mixture containing polybrene. Twenty fours later, the viral medium was replaced with induction medium, composed of DMEM/199 (4:1) (Gibco), 10% FBS (Gemini), 5% horse serum(Gemini), antibiotics (Gibco), 1× non-essential amino acids (Gibco), 1× essential amino acids (Gibco), 1× B-27 (Gibco), 1× insulin-selenium-transferin (Gibco), 1× vitamin mixture (Gibco), and 1× sodium pyruvate (Gibco). Medium was changed every two-three days until cells were examined.\nCells in 60 mm dishes were examined under an EVOS® FL Color imaging system (Life Technologies) at 25° C. Beating cells were counted at a field with an area of 0.89 mm^2. Ten to fifteen fields in each dish were randomly chosen."}, "iCMs": {"test_system": "iCMs", "experiment": "Spontaneous calcium transients in Fura-2 AM-loaded iCMs", "type": "cell-based, mouse", "design": "dose or concentration left out as unconfirmed", "conditions": "iCMs on days 10-12, isoproterenol", "source_text": "To determine whether iCMs were developing functional excitation-contraction (EC) coupling, we imaged spontaneous calcium transients from Fura-2 AM-loaded iCMs. Spontaneous calcium transients were detected in spontaneously beating cells on days 10-12 (FIGS. 68-71). […] To determine whether iCMs are able to appropriately respond to hormone stimulation, a critical function of normal cardiomyocytes, we measured calcium transients in response to the b-adrenergic agonist isoproterenol (Iso)."}, "MEFs [2]": {"test_system": "MEFs", "experiment": "qPCR of cardiac genes in reprogramming MEFs", "type": "cell-based, mouse", "description": "(§2) Cells were harvested in TRizol reagent (Ambion) for RNA isolation. RNA was extracted with the RNeasy® Plus Universal Mini Kit (Qiagen). RT-PCR was performed using the Superscript III first-strand synthesis system (Invitrogen). qPCR was performed using the SYBR® Green PCR master mix (Applied Biosystems) or StepOne™ Real-Time PCR Systems (Applied Biosystems). Primers are listed in Supplementary Table 1. Ryr2 (Mm00465877_m1) and Myh7 (Mm01319006_91) are Taqman probes (Life technologies)."}, "[3]": {"test_system": "mice following ischemia/reperfusion injury", "conditions": "cited from earlier work"}, "MEFs [4]": {"test_system": "MEFs", "experiment": "Pro-fibrotic marker expression in infected MEFs (qPCR, Western blot, αSMA stress fiber immunostaining)", "type": "cell-based, mouse", "description": "as §2\nSamples were placed on ice and washed with ice-cold DPBS (Gibco) twice, then ice-cold lysis buffer (150 mM NaCl, 50 mM Tris-Cl pH7.4, 1 mM EDTA, 1% Triton, Complete mini tablet (Roche), 1 mM PMSF freshly added before use) was added to the cells. Cells were scraped and transferred to a pre-chilled 1.5 Eppendorf tube and frozen in liquid N2. Before used, the lysate was thawed on ice. The lysate was passed carefully through a 25 g needle for 5 times and then centrifuge at 14,000 rpm for 15 minutes at 4° C. The supernatant was transferred to a new 1.5 ml tube. The protein concentration was measured and 20 ug of lysate for each sample was loaded to SDSPAGE. Proteins were then transferred to PVDF. The PDVF membrane was blocked in 2.5% BSA in 1×TBST for 30 mins at room temperature (RT). The primary antibody was added in blocking buffer for 60 mins at RT. Wash in 1×TBST (20 mM Tris-Cl, pH7.4; 150 mM NaCl; 0.1% Tween20) three times at RT, each for 15 mins. The Secondary antibody was added in blocking buffer for 45 mins at RT. The membrane was washed in 1 XTBST for 15 mins, 1×TBST for 5 mins, then TBS (10 mM Tris-Cl pH8, 150 mM NaCl) for 5 mins. The membrane was resolved with Super Signal® West Pico (34080) or Femto (34095) substrate (Thermo Scientfic). The primary antibodies include: Snail (Cell Signaling, 3879S, 1:1000), Slug (Cell Signaling, 9585S, 1:1000), P-Smad2 (Cell Signaling, 23108P, 1:1000), Smad2 (Cell Signaling, 5339, 1:1000), αSMA (Santa Cruz, SC-32251, 1:10000), cTn1 (Phospho Solutions, 2010-TNI, 1:1000), cTnT (Sigma, T6277, 1:1000), and GAPDH (Ambion, AM4300). The secondary antibodies include: Goat Anti-Mouse IgG (H+L) (Southern Biotech, 1031-05, 1:2000). Goat Anti-Rabbit IgG (Life Technologies, 65-6120, 1:2000). For separation of α- and β-myosin heavy chain, samples were run by modified 6% SDS-PAGE (separating acrylamide/bis ratio 1:100; resolving gel buffer pH 9.0; running gel buffer pH 8.2; β-mercaptoethanol 600 μl/l inner gel buffer). Gels were run overnight at 4° C. and stained with BioSafe Coomassie Blue protein stain.\n(§3) Cells were fixed in 2% PFA for 15 min on ice then washed with DPBS (Gibco) three times at RT. The cells were permeabilized in 0.5% Triton X-100 (made in PBS) for 20 min at RT. After washing the cells with DPBS (Gibco), cells were incubated with the primary antibody against α-actinin (Sigma A7811, 1:300), Connexin 43 (Sigma, C6219, 1:500), Troponin T (Thermo Scientific MS-245-P, 1:500), α-SMA (Santa Cruz Biotechnology, SC-32251, 1:800), Myl2 (Proteintech, 10906-1-AP, 1:200), or Myl7 (Proteintech, 17283-1-AP, 1:200) in 10% FBS(Gemini) in DPBS for 1 hour at RT. Cells were wash with DPBS three times, 5 min each. Cell were incubated with the secondary antibody (Alexa Fluor 555 Molecular Probes A21422, 1:1000) and Hoechest (Molecular Probes 33342, 1:5000) for 30 mins at RT."}, "MEFs [5]": {"test_system": "MEFs", "experiment": "Immunocytochemistry for cTnT and α-actinin in infected MEFs", "type": "cell-based, mouse", "description": "as §1, §3"}, "MEFs [6]": {"test_system": "MEFs", "experiment": "Intracellular staining for flow cytometry (cTnT, Myc) in retrovirus-infected MEFs", "type": "cell-based, mouse", "conditions": "GHMT-infected MEFs, day 7; alone or treated with TGF-β1 (10 ng/ml) or A83-01 (0.5 μM, day 3 to day 7)", "description": "C57BL6 pregnant mice at E13 were order from Charles River's laboratory. Embryos at E14.5 were harvested and their internal organs and head were removed. The body below the liver was minced using blade to fine pieces. Minced embryos were incubated with 2 ml of 0.25% trypsinIl mM EDTA, Phenol Red (Gibco) for 40 mins at 37° C. with 5% CO2. Cells were suspended in 25 ml of growth medium (DMEM/Hi glucose (Hyclone) 10% FBS (Gemini), 1.1% Penicillin-Streptomycin (Gibco) and 1.1% GlutaMAX supplement (Gibco)) and then plated on a 15 cm dish. In 24 hours, the media was aspirated and new 25 ml of growth medium was added. In 72 hours, MEFs were harvested and stored for future use.\nas §1\nAdherent fibroblasts were washed with DPBS (Gibco). Cells were detached from culture dish by treatment with 0.25% Trypsin/EDTA (Gibco) for 3 min at 37° C. Cells were then washed with 4 ml of 5% FBS (Gemini) in DPBS filtered through a cell strainer and centrifuge at 1200 rpm×6 mins. Cells were washed with 500 ul of 1% BSA in DPBS. Cells were fixed with BD Cytofix/Cytoperm™ solution in 0.2 ml/1 million cells in 1.5 ml eppendorf tube for 20 min on ice. Cells were washed with 1 ml of BD perm/wash buffer and Centrifuged for 6 min at 1200 rpm. The supernatant was discarded; cells were washed again with 1 ml of BD Perm/wash buffer and left overnight at 4° C. The next day, Cells were centrifuged for 6 min at 1200 rpm, the supernatant discarded and 100 μl of Blocking buffer made with 5% goat, donkey serum (Sigma: G9023 and D9663) in Perm/wash buffer was added to the cells and incubated for 30 min at RT. A primary antibody: Mouse Troponin T (cTnT) antibody (Thermo Scientific, ms-295-p, 1:200), mouse anti-C-Myc antibody (BD Pharmingen, 551102, 1:200) in 100 μl BD Perm/Wash buffer was added to the cells and incubated for 1 hr at RT. One ml cold BD Perm/wash buffer was added to the cells and centrifuged for 6 min at 1200 rpm. […] Cells were re-suspended in 300 ul of 1% BSA/DPBS and then analyzed using FACS Caliber (BD Sciences) and FlowJo software."}, "[7]": {"conditions": "GFP-, GHMT- and GHMT2m-infected cultures, day 7"}}, "data": [{"molecule": "O=C(NC1CCOCC1)c1ccc(-c2cc(-c3c[nH]nc3-c3ccccn3)ccn2)cc1", "note": "[GW788388]", "values": [{"measurement": "TGF-β activity, cardiac fibrosis, ventricular remodeling, systolic dysfunction", "setting": "rats following MI", "value": "significantly decreased TGF-β activity, cardiac fibrosis and ventricular remodeling with attenuation of systolic dysfunction"}, {"measurement": "spontaneously beating cells induced by GHMT2m in the presence of inhibitor", "setting": "MEFs [1]", "value": "enhanced cardiac reprogramming by inducing more spontaneously beating cells"}]}, {"molecule": "CC(C)NCC(O)c1ccc(O)c(O)c1", "note": "(stereo not shown) [Iso, isoproterenol]", "values": [{"measurement": "frequency of cell contraction and spontaneous calcium transients", "setting": "iCMs", "value": "significantly increased"}]}, {"molecule": "c1ccc(-c2[nH]ncc2-c2ccnc3ccccc23)nc1", "note": "[LY-364947]", "values": [{"measurement": "spontaneously beating cells induced by GHMT2m in the presence of inhibitor", "setting": "MEFs [1]", "value": "enhanced cardiac reprogramming by inducing more spontaneously beating cells"}]}, {"molecule": "Fc1ccc(Cl)cc1-c1nc(Nc2ccncc2)c2nccnc2n1", "note": "[SD-208]", "values": [{"measurement": "spontaneously beating cells induced by GHMT2m in the presence of inhibitor", "setting": "MEFs [1]", "value": "enhanced cardiac reprogramming by inducing more spontaneously beating cells"}]}, {"molecule": "CN(C)CCOc1cc(-c2cn[nH]c2)ccc1NC(=O)C1COc2ccccc2O1", "note": "(stereo not shown) [SR-3677]", "values": [{"measurement": "spontaneously beating cells induced by GHMT2m in the presence of inhibitor", "setting": "MEFs [1]", "value": "enhanced cardiac reprogramming and promoted formation of spontaneously beating cells"}]}, {"molecule": "O=C(NCc1ccccc1)c1csc(Nc2ccncn2)n1", "note": "[Thiazovivin]", "values": [{"measurement": "spontaneously beating cells induced by GHMT2m in the presence of inhibitor", "setting": "MEFs [1]", "value": "enhanced cardiac reprogramming and promoted formation of spontaneously beating cells"}]}, {"molecule": "C[C@@H](N)[C@H]1CC[C@H](C(=O)Nc2ccncc2)CC1", "note": "[Y-27632]", "values": [{"measurement": "cardiomyocyte-specific gene expression", "setting": "MEFs [2]; reprogramming MEFs treated with Y-27632 for 5 days, day 7", "value": "enhanced"}, {"measurement": "infarct size and remodeling", "setting": "[3]", "value": "decreased infarct size and remodeling"}, {"measurement": "Snail and Slug expression", "setting": "MEFs [4]; [7]", "value": "did not change"}, {"measurement": "expression of Fn-EDA and αSMA", "setting": "MEFs [4]; [7]", "value": "decreased"}, {"measurement": "inhibition of expression of pro-fibrotic markers, comparison of inhibitors", "setting": "MEFs [4]; reprogramming MEFs", "value": "inhibited expression of pro-fibrotic markers less efficiently than A83-01"}, {"measurement": "assembly of myocyte sarcomeres", "setting": "MEFs [5]; infected MEFs treated with Y-27632 (30 μM), day 14", "value": "enhanced"}, {"measurement": "beating cell population", "setting": "MEFs [1]; GHMT2m cultures of MEFs, by day 12, without or with Y-27632 (30 μM)", "value": "~30", "unit": "%"}, {"measurement": "increase of the number of beating cells", "setting": "MEFs [1]; GHMT-infected MEFs, Y-27632 30 μM, by 4 weeks", "value": 7, "unit": "fold"}, {"measurement": "time by which cells started to beat", "setting": "MEFs [1]; MEFs, GHMT2m alone, or GHMT-infected cultures treated with Y-27632 (30 μM) or A83-01 (0.5 μM)", "value": "≤ 12", "unit": "days"}]}, {"molecule": "TGF-β1: Recombinant Mouse TGF-beta 1 (R&D Systems 7666-MB-005), pro-fibrotic stimulus", "values": [{"measurement": "cTnThigh fraction", "setting": "MEFs [6]", "value": "approximately 19%"}, {"measurement": "expression of other cardiomyocyte markers, including α-actinin, Myh6 and Actc1", "setting": "MEFs [2]; GHMT2m-cultures treated with TGF-β1", "value": "significantly down-regulated"}, {"measurement": "cardiac gene expression", "setting": "MEFs [2]; GHMT-infected cultures treated with TGF-β1 for 4 days", "value": "significantly reduced"}, {"measurement": "profibrotic gene Col1a1 expression", "setting": "MEFs [4]; GHMT2m-fibroblasts treated with TGF-β1", "value": "enhanced"}, {"measurement": "amount of phospho-Smad2, expression of Fn-EDA and Col1a1, formation of αSMA stress fibers", "setting": "MEFs [4]; GHMT-infected cultures at day 7, TGF-β1 10 ng/ml, compared to non-treated", "value": "increased"}, {"measurement": "fraction of cTnT+ cells", "setting": "MEFs [5]; GHMT2m-cultures treated with TGF-β1, day 7 and day 14", "value": "did not significantly decrease"}, {"measurement": "cTnT+ and α-actinin+ populations", "setting": "MEFs [5]; GHMT-infected MEFs treated with TGF-β1, day 14", "value": "significantly reduced"}, {"measurement": "decrease of beating cells", "setting": "MEFs [1]; GHMT2m-infected MEFs treated with TGF-β1, by one month", "value": 100, "unit": "fold"}, {"measurement": "effect on beating cells", "setting": "MEFs [1]; GHMT-infected MEFs treated with TGF-β1, by one month", "value": "completely abolished"}]}]}
